The target in test [1] is Dual specificity protein kinase CLK1 (Homo sapiens, UniProt P49759).
Test [2] addresses Cyclin-dependent kinase 5 (Homo sapiens, UniProt Q00535).
The next test concerns the target Casein kinase I. Format: protein assay, Homo sapiens.
The target of test [3] is Dual specificity protein kinase CLK3 (Homo sapiens, UniProt P49761).
Test [4] deals with T1, Dual specificity tyrosine-phosphorylation-regulated kinase 2 (Homo sapiens, UniProt Q92630).
T1 sequence (Q92630 whole entry): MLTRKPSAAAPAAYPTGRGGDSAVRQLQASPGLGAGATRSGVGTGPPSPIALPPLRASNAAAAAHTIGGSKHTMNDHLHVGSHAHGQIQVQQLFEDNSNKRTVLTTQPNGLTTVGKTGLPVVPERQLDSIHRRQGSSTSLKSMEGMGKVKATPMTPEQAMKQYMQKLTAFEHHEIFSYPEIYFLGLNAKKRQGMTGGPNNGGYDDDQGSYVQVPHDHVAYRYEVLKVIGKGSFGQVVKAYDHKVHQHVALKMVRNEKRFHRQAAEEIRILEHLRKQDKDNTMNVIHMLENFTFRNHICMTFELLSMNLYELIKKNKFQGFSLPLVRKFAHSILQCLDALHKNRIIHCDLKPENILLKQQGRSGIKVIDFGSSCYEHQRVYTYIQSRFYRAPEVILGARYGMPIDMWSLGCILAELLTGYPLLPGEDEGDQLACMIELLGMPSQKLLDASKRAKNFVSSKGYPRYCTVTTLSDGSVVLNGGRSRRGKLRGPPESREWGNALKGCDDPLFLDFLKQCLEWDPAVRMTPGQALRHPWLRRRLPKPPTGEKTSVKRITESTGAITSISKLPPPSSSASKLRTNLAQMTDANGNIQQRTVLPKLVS

Test [5] deals with T2, Dual specificity tyrosine-phosphorylation-regulated kinase 3 (Homo sapiens, UniProt O43781).
T2 sequence (O43781 whole entry): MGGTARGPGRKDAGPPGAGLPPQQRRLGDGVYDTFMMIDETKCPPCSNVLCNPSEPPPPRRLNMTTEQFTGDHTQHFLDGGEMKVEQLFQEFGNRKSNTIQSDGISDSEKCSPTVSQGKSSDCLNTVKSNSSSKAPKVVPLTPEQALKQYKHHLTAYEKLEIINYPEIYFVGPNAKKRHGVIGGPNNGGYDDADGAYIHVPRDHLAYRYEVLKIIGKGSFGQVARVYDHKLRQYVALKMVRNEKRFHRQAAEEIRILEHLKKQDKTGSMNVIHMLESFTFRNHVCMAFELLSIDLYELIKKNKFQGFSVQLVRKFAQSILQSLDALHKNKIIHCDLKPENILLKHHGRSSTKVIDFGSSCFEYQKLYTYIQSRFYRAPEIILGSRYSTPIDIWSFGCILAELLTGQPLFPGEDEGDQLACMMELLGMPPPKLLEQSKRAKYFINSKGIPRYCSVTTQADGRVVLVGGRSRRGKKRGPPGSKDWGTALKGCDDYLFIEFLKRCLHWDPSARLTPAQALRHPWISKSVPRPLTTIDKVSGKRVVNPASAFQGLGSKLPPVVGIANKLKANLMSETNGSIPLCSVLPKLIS

Test [6] deals with T3, Dual specificity tyrosine-phosphorylation-regulated kinase 4 (Homo sapiens, UniProt Q9NR20).
T3 sequence (Q9NR20 whole entry): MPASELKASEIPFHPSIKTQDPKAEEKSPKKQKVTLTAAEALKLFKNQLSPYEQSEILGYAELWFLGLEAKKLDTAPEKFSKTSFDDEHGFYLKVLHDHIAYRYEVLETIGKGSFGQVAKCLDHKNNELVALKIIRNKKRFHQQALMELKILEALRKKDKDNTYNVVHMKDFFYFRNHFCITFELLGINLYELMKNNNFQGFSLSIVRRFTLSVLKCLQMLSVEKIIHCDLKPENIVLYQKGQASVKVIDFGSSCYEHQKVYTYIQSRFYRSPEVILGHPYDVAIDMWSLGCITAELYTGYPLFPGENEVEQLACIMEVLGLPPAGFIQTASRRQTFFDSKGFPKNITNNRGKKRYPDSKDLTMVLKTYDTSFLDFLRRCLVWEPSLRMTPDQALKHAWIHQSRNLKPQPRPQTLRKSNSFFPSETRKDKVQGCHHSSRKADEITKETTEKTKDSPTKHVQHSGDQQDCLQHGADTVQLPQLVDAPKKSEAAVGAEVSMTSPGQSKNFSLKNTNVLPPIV

Test [7] addresses Glycogen synthase kinase-3 (Homo sapiens, UniProt P49840+P49841). Format: protein assay.
The target of test [8] is Dual specificity protein kinase CLK4 (Homo sapiens, UniProt Q9HAZ1).
Test [9] deals with Dual specificity tyrosine-phosphorylation-regulated kinase 1A (Homo sapiens, UniProt Q13627).
In test [10] the target is Dual specificity tyrosine-phosphorylation-regulated kinase 1B (Homo sapiens, UniProt Q9Y463).

“And” between values parts separate entries of the source, which are not always exact repeats. Equal values may be shown once.

Chain of Dual specificity protein kinase CLK1 (P49759 whole entry): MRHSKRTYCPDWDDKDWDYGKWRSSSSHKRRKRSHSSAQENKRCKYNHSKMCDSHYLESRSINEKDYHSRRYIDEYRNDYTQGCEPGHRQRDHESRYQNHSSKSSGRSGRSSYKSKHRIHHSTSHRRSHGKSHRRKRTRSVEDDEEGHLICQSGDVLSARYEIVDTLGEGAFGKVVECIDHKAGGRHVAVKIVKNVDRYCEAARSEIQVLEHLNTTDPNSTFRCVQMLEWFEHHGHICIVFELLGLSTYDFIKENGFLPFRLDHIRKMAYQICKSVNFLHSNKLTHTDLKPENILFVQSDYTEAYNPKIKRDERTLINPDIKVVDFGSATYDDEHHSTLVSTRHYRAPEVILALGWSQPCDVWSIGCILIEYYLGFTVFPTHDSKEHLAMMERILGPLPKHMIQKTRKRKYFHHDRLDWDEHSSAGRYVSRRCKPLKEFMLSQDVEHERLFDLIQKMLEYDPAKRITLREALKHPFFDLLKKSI
Chain of Dual specificity protein kinase CLK4 (Q9HAZ1 whole entry): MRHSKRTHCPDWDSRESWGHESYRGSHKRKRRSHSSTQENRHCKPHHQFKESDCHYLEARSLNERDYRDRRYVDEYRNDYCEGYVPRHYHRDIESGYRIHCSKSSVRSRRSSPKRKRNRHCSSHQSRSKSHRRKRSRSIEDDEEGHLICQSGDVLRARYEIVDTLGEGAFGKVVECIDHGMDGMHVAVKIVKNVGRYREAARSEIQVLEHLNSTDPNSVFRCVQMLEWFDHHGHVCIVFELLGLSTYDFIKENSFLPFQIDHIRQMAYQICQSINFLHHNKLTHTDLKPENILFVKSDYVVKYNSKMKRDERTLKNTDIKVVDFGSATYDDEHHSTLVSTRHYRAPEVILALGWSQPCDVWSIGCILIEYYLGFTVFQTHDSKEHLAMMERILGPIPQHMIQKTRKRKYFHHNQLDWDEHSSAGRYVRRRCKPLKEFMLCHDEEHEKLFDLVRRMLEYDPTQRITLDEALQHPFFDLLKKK
Chain of Dual specificity tyrosine-phosphorylation-regulated kinase 1B (Q9Y463 whole entry): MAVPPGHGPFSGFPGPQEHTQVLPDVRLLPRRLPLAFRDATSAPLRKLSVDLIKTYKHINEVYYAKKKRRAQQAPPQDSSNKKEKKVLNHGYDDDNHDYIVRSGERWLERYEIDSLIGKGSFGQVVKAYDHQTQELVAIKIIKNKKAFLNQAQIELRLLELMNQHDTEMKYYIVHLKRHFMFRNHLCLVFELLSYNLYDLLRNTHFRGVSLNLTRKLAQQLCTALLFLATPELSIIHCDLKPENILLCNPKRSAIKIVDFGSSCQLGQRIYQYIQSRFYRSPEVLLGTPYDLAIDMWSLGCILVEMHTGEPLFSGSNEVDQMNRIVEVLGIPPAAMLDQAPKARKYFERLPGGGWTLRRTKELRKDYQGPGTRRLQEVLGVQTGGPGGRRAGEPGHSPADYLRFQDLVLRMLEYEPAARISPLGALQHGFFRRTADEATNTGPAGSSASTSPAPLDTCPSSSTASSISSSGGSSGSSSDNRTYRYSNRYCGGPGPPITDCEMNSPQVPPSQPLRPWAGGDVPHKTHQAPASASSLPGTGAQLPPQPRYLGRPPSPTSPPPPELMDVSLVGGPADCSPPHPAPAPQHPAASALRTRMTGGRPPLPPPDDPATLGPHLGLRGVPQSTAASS
Chain of Dual specificity protein kinase CLK3 (P49761 whole entry): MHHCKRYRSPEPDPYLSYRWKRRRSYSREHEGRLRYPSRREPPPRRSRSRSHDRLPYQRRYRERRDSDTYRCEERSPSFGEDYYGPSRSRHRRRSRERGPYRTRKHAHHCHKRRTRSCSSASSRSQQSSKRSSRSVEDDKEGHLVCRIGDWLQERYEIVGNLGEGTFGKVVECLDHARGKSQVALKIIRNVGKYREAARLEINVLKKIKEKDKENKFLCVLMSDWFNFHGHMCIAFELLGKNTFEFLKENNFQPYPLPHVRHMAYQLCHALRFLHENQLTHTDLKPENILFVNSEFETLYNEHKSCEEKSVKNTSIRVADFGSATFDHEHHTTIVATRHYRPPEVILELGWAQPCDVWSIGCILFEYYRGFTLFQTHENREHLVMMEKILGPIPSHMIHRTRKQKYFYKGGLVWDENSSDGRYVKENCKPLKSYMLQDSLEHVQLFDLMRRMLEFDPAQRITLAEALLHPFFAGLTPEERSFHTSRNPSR
Chain of Cyclin-dependent kinase 5 (Q00535 whole entry): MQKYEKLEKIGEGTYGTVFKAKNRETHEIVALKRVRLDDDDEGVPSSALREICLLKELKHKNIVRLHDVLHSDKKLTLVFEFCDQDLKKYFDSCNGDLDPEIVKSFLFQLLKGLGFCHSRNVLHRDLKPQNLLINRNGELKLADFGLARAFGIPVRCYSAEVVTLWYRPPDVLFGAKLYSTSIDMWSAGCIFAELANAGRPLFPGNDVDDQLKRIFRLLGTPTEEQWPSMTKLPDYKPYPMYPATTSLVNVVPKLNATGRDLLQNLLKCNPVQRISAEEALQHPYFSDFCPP

By IC50 is commonly meant the midpoint of a concentration-inhibition curve. Read a high IC50 as lower potency. On to `CC(C)C[C@@H](CO)NC1=N/C(=C\c2ccc3ncsc3c2)C(=O)N1`, for which the IC50 in test [1] was 38.7 nM; in test [2], > 10000 nM; against Casein kinase I, > 10000 nM; in [3] it was 474 nM; in test [4] it was 2840 nM; in test [5] it was 493 nM. For the same compound, the figures for the IC50 in test [6] and in [7] were 5180 nM and 8165 nM, respectively.
Turning to `COC[C@@H](CC(C)C)NC1=N/C(=C\c2ccc3[nH]cnc3c2)C(=O)N1`, the IC50 was determined as 104 nM in [1], 41.2 nM in test [8], 76.6 nM in test [9] and 1080 nM in test [10].
`CN1C(=O)/C(=C/c2ccc3c(c2)OCO3)N=C1N` [LEUCETTAMINE B]: the IC50 (on Casein kinase I; in test [7]) was > 10000 nM throughout.
Regarding `O=C1NC(Nc2ccccc2)=N/C1=C\c1ccc2c(c1)OCO2`, the concentration for half-maximal inhibition (IC50) is 10 nM in [8]; > 10000 nM against Casein kinase I; 5840 nM in [3]; 507 nM in test [6]; 1544 nM in test [7].
As to `COC[C@@H](CC(C)C)NC1=N/C(=C\c2ccc3c(c2)CCO3)C(=O)N1`, the IC50 in test [1] was found to be 56.7 nM; in [8] it was 14 nM; in test [9], 11.6 nM; in test [10], 71.6 nM.
Regarding `COC[C@@H](CC(C)C)NC1=N/C(=C\c2ccc3c(ccn3C)c2)C(=O)N1`, the IC50 was > 10000 nM in test [1], > 10000 nM in test [8] and 8170 nM in test [10].
In the case of `COC[C@@H](CC(C)C)NC1=N/C(=C\c2ccc3ncoc3c2)C(=O)N1`, it took 14.2 nM to reach half-maximal inhibition in test [1] (IC50).
For the compound `COC[C@@H](CC(C)C)NC1=N/C(=C\c2ccc3ncsc3c2)C(=O)N1C`, the 50% inhibitory concentration (IC50) in test [8] was 11.6 nM and 12.4 nM; in test [10] it was 9.6 nM and 16.6 nM; in [2], > 10000 nM; against Casein kinase I, > 10000 nM; in test [6], 525 nM; in [7], 4481 nM.
For `COC[C@@H](CC(C)C)NC1=N/C(=C\c2ccc3c(c2)OCO3)C(=O)N1`, the IC50 in test [1] turned out to be 1 nM; in test [8], 13.5 nM; in test [9], 5 nM; in [10] it was 23 nM.
Turning to `COC[C@@H](CC(C)C)NC1=N/C(=C/c2ccc3ncoc3c2)C(=O)N1C`, the figures for the IC50 in [1] and in test [8] were 18.8 nM and 16.3 nM, respectively.
On to `COC[C@@H](CC(C)C)NC1=N/C(=C\c2ccc3[nH]ccc3c2)C(=O)N1C`, for which the figures for the IC50 in [8] and in test [9] were > 10000 nM and 3930 nM, respectively.
Take `COC[C@@H](CC(C)C)NC1=N/C(=C\c2ccc3c(c2)ncn3C)C(=O)N1C`: the IC50 in test [1], in test [8], in [9] and in [10] was > 10000 nM each time.
In the case of `COC[C@@H](CC(C)C)NC1=N/C(=C\c2ccc3[nH]ccc3c2)C(=O)N1`, the IC50 is > 10000 nM in test [8], 4790 nM in [9] and > 10000 nM in test [10].
For the compound `COC[C@@H](CC(C)C)NC1=N/C(=C\c2ccc3c(cnn3C)c2)C(=O)N1C`, the half-inhibitory concentration (IC50) in test [1] amounted to 408 nM; in [9], 399 nM.
For the compound `COC[C@@H](CC(C)C)NC1=N/C(=C\c2ccc3c(c2)ncn3C)C(=O)N1`, the IC50 in test [1], in test [8], in test [9] and in [10] was > 10000 nM in each case.
For the compound `COC[C@@H](CC(C)C)NC1=N/C(=C\c2ccc3c(c2)CCO3)C(=O)N1C`, the results for the half-inhibitory concentration (IC50) in test [8], in test [9] and in test [10] were 578 nM, 488 nM and 170 nM, respectively.
Regarding `COC[C@@H](CC(C)C)NC1=N/C(=C\c2ccc3nc(C)sc3c2)C(=O)N1`, the IC50 in test [8] stood at 52.7 nM.
As to `CCN1C(=O)/C(=C/c2ccc3ncsc3c2)N=C1N[C@@H](COC)CC(C)C`, the concentration for half-maximal inhibition (IC50) was 200 nM in [1]; 58.5 nM in test [8]; > 10000 nM in [2]; > 10000 nM against Casein kinase I; 1360 nM in test [3]; 165 nM in test [4]. Moreover, the IC50 in [6] was 2560 nM; in test [7], 7867 nM.
`COC[C@@H](CC(C)C)NC1=N/C(=C\c2ccc3scnc3c2)C(=O)N1C`: the IC50 in test [1], in test [8], in test [9] and in [10] was > 10000 nM throughout.
Take `COC[C@@H](CC(C)C)NC1=N/C(=C\c2ccc3nc(C)sc3c2)C(=O)N1C`: the IC50 in [1] worked out at 496 nM; in test [8], 673 nM; in test [9], 511 nM.
Consider `COC[C@@H](CC(C)C)NC1=N/C(=C\c2ccc3nnsc3c2)C(=O)N1C`, for which the 50% inhibitory concentration (IC50) in test [1] was determined as 734 nM; in test [8], 861 nM; in test [9] it was 950 nM; in [10] it was 751 nM.
Turning to `COC[C@@H](CC(C)C)NC1=N/C(=C\c2ccc3ncsc3c2)C(=O)N1C1CCC1`, the IC50 in [1] was 1420 nM; in [8], 1210 nM; in test [9], 5620 nM; in test [2], > 10000 nM; at Casein kinase I, > 10000 nM; in [3] it was 4690 nM. The IC50 in [4] is 581 nM; in [5], 5320 nM; in [7], > 10000 nM.
As for `COC[C@@H](CC(C)C)NC1=N/C(=C\c2ccc3c(ccn3C)c2)C(=O)N1C`, the IC50 in [1], in test [8], in test [9] and in [10] was > 10000 nM each time.
Turning to `COC[C@@H](CC(C)C)NC1=N/C(=C\c2ccc3[nH]ncc3c2)C(=O)N1`, the results for the IC50 in test [1], in test [8] and in test [10] were 310 nM, 245 nM and 115 nM, respectively.
For `COC[C@@H](CC(C)C)NC1=N/C(=C\c2ccc3[nH]cnc3c2)C(=O)N1C`, the IC50 in [8] stood at 2.1 nM; in test [9], 112 nM.
`COC[C@@H](CC(C)C)NC1=N/C(=C\c2ccc3nnsc3c2)C(=O)N1` showed an IC50 in test [8] of 268 nM.
Regarding `COC[C@@H](CC(C)C)NC1=N/C(=C\c2ccc3nn(C)cc3c2)C(=O)N1C`, the IC50 was 258 nM in test [1] and 153 nM in test [8].
As for `COC[C@@H](CC(C)C)NC1=N/C(=C\c2ccc3c(cnn3C)c2)C(=O)N1`, the IC50 in test [8] was 189 nM; in test [10], 358 nM.
For the compound `COC[C@@H](CC(C)C)NC1=N/C(=C\c2ccc3[nH]ncc3c2)C(=O)N1C`, the IC50 in test [8] was found to be 166 nM; in [9], 196 nM; in test [10], 134 nM.
`COC[C@@H](CC(C)C)NC1=N/C(=C\c2ccc3ncn(C)c3c2)C(=O)N1`: the IC50 was determined as 38.2 nM in [1], 11.7 nM in test [8] and 78.7 nM in test [9].
Consider `COC[C@@H](CC(C)C)NC1=N/C(=C\c2ccc3nn(C)cc3c2)C(=O)N1`, for which the results for the IC50 in test [1] and in test [10] were 191 nM and 78.3 nM, respectively.
Regarding `COC[C@@H](CC(C)C)NC1=N/C(=C\c2ccc3c(c2)OCO3)C(=O)N1C`, the IC50 in [1] came out at 131 nM; in [8] it was 77.1 nM; in test [9], 53.5 nM; in [10], 41.1 nM.
In the case of `COC[C@@H](CC(C)C)NC1=N/C(=C\c2ccc3ncn(C)c3c2)C(=O)N1C`, in [1], the IC50 turned out to be 37.6 nM.

(Values after ChEMBL document CHEMBL5375979, “Chemical, Biochemical, Cellular, and Physiological Characterization of Leucettinib-21, a Down Syndrome and Alzheimer's Disease Drug Candidate” (J Med Chem, 2023).)
